Results published in US20050238675A1, “Water-soluble formulations of fat soluble vitamins and pharmaceutical agents and their applications” (priority 2004, published 2005).

Key:
[1] = Solubility measurement of Co-Q10 in aqueous solution (HPLC assay); assay type: physicochemical
[2] = Solubility measurement of beta-carotene in water (0.45 micron filtration, UV-Vis spectrometry); assay type: physicochemical; details: beta-carotene admixed in edible oil, mixed with 10 ml DI water, 0.45 micron syringe filter
Description: Solubility Measurement: For comparison purpose, the solubility of beta-carotene was measured both in edible oil and in the micellized product of Example 1 described above. In these measurements a suitable amount of sample is mixed with 10 ml of DI water for at least 10 minutes. The solutions are filtered through 0.45 microns syringe filter. The beta-carotene contained in the sample after this filtration is measured by UV-Vis spectrometry. […] 100% of the originally admixed beta-carotene is measured to be present in the micellized filtered sample of Example 1.

Row | SMILES | Co-Q10 detected in aqueous solution [1] | beta-carotene found in the aqueous sample [2]
1 | COC1=C(OC)C(=O)C(C/C=C(\C)CC/C=C(\C)CC/C=C(\C)CC/C=C(\C)CC/C=C(\C)CC/C=C(\C)CC/C=C(\C)CC/C=C(\C)CC/C=C(\C)CCC=C(C)C)=C(C)C1=O [Co-Q10 powder, ubidecarenone] | no Co-Q10 detected | 
2 | CC1=C(/C=C/C(C)=C/C=C/C(C)=C/C=C/C=C(C)/C=C/C=C(C)/C=C/C2=C(C)CCCC2(C)C)C(C)(C)CCC1 [beta-carotene] |  | No detectable amount
